Assay results from patent US8293764B2, “Compositions and methods for disruption of BRCA2-Rad51 interaction” (The Regents of the University of California, priority 2004, dated 2012).
Entries after “also recorded” stand apart in the source; their conditions may differ.

Columns and labels:
[1] = test system: CAPAN-1; test: Sensitivity of BRCA2-truncated pancreatic cancer cell line; type: cell-based; settings: preliminary results
Source text: The absence of BRCA2 in cells also appears to have a significant impact on Rad51 stability rendering them much more sensitive to IBR2 treatment. […] It is therefore contemplated that IBR2 may be particularly useful in treating cancer cells lacking functional BRCA2 (or having a reduced BRCA2 expression) albeit only a small fraction of cancer.

[2] = test system: IR-induced Rad51 foci in MCF-7 breast cancer cells; test: IR-induced Rad51 foci formation (immunostaining); type: cell-based; settings: MCF-7 cells
Protocol: These compounds were then tested for their effects on IR-induced Rad51 foci formation in MCF-7 breast cancer cells.
To test this possibility, the number of the MCF-7 cells that formed IR-induced Rad51 foci was measured after IBR2 treatment.
Immunostaining Rad51 and g-H2AX foci: MCF-7 cells were treated with 20 μM IBR2 for 7 or 19 hours and then g-irradiated at 20 Gy. Cells were incubated for an additional 5 hours with 20 μM IBR2, then fixed with 4% paraformaldehyde in PBS containing 0.5% Triton X-100. The fixed cells were incubated with a-Rad51 antibody (mAb 1F5) or a-g-H2AX antibody (Upstate). Rad51 and g-H2AX foci positive cells were subsequently counted as described (Chen et al., 1999).

[3] = test system: Rad51 in MCF-7 cells; test: Rad51 stability assay with cyclohexamide; type: cell-based; settings: with cyclohexamide; control cells 5.5 hours
Source text: To examine the impact of IBR2 on Rad51 protein expression, IBR2 treated MCF-7 cells was examined by straight western blot probed with a panel of antibodies against BRCA2, Rad51, Rad50, p84 and Rb. […] Consistent with our FACS analysis (FIG. 4A), the hypo-phosphorylated form of Rb, a marker for G1 phase, was the major form observed in the later time points, further confirming that IBR2 arrests cells at G1 phase (FIG. 4A). It has been reported that BRCA2 level is cell cycle dependent, which expresses low in G1 phase and peaks at G1/S boundary. Therefore the decreased level of BRCA2 in IBR2 treated cells may be due to G1 phase arrest. Different from BRCA2 protein, Rad51 protein is expressed constant throughout the cell cycle in MCF-7 cells (data not shown). Therefore, loss of Rad51 protein may be the direct effect of IBR2 treatment instead of the consequence of G1 arrest. […]
Western blot analysis: Cells were treated with […] or 50 μg/ml cycloheximide (CHX) or 1 μM MG132 and harvested at different time points for western blot analysis. […] The intensity of bands was quantified by densitometry using Labworks 4.5 software. The relative value of the band intensity was calculated with respect to that of untreated sample after normalization with the p84 signal.

[4] = test system: breast cancer cell lines (MDA-MB-231, MCF-7, MDA-MB-468, SKBR3 and MDA-MB-435); test: Cell growth curves, trypan blue exclusion assay; type: cell-based; settings: 0, 5, 10, 20 μM; 1-5 days
Protocol: The inventors examined the effects of IBR2 on the growth and viability of a panel of breast cancer cell lines. Five exponentially growing breast cancer cell lines (MDA-MB-231, MCF-7, MDA-MB-468, SKBR3 and MDA-MB-435) were incubated with IBR2 at various concentrations (0, 5, 10 and 20 μM) for various periods of time (1, 2, 3, 4 and 5 days). The viable cell numbers were then counted by trypan blue exclusion assay. […] We also examined the effects of IBR2 on the growth and viability of cultured breast cancer cells (MDA-MB-468, MDA-MB-435, MCF-7, T47D) using the 3-(4,5-dimethylthiazol-2-yl)-2,5-diphenyltetrazolium bromide (MTT) assay.
Cell proliferation assay and clonogenic survival assays: To obtain cell growth curves, 1×10^4 cells were seeded in 12-well plate for 24 hours. Cells were then treated, in duplicate, with various concentrations of IBR2 in the presence of 0.4% DMSO. The viable cells were counted by trypan blue exclusion assay daily. MTT assay was performed as previously described (Alley et al., 1988).

[5] = test system: non-small-cell lung carcinoma (CALU-1, A427, Sklu-1, CALU-6), osteosarcoma (SaoS2, U2OS) and glioblastoma (T98G) cell lines; test: Proliferation of other cancer cell lines; type: cell-based; settings: CALU-1, A427, Sklu-1, CALU-6, SaoS2, U2OS
[6] = test system: human breast cancer xenograft (MDA-MB-468); test: Tumor inhibition assay in nude mice; type: in vivo
Protocol: To test the inhibitory effect of IBR2 on the growth of established tumor xenografts in nude mice, we chose the human breast cancer cell line MDA-MB-468 for this study. Mice with tumor size of approximately 85 mm3 were treated with three doses of IBR2 (10, 50 and 150 mg/kg i.p.) every other day for up to five weeks.
Tumor inhibition assay in nude mice: 5×10^6 MDA-MB-468 cells in 100 μl of PBS were injected into mammary fat pad of 6-8 week old athymic female BALB/c-nude mice (nu/nu) (Charles River Laboratories). After tumors grew to 85 mm^3 (day 12), mice were randomized into four groups (n=5 per group) to receive intraperitoneal injection of IBR2 (10, 50, or 150 mg/kg) or vehicle (15% DMSO, 20% Tween 20, 10% PEG400, 55% saline) every other day for 5 weeks. Body weights of mice and tumor volumes were measured twice weekly during the course of drug treatment. A Student's t test was used to determine P value.

O=S(=O)(Cc1ccccc1)N1C=Cc2ccccc2C1c1c[nH]c2ccccc12 (stereo not drawn) [IBR2, 2-(benzylsulfonyl)-1-(1H-indol-3-yl)-1,2-dihydroisoquinoline]
sensitivity of CAPAN-1 to IBR2 [1]: significant sensitivity | IR-induced Rad51 foci formation [2]: dramatically reduced Rad51 foci formation; also recorded: significantly reduced IR-induced Rad51 foci formation | half-life of Rad51 [3]: 1.5 h | growth of breast cancer cell lines (viable cell numbers) [4]: retarded growth of breast tumor cells in culture; also recorded: significantly inhibited the growth | proliferation [5]: significantly inhibited | average body weights of nude mice ([6]; 10, 50 and 150 mg/kg i.p.): remained almost constant | toxicity to animals ([6]; 10, 50 and 150 mg/kg i.p.): without apparent toxicity to animals | retardation of tumor growth ([6]; 10, 50 and 150 mg/kg i.p. every other day up to five weeks, vs vehicle): up to 65% | tumorigenicity in nude mice ([6]; mouse, in vivo): significantly reduced tumorigenicity in nude mice
